{
  "source": "patent US10246515B2",
  "about": "“Methods of treating hedgehog-related diseases with an anti-LGR5 antibody” (Genentech, Inc., priority 2013, dated 2019)",
  "key": {"[1]": {"test_system": "Superficial Basal Cell Carcinoma (BCC)", "test": "DT cell ablation in Superficial Basal Cell Carcinoma (BCC), K14CreER/+; p53loxP/loxP; PtchloxP/loxP; LGR5DTReGFP/+ mice; H&E and immunofluorescent staining", "format": "in vivo", "details": "75 mg/kg GDC-0449 po BID for 38 days with Diphtheria Toxin 50 ug/kg every other day for the final 8 days, Lgr5DTR.EGFP mice (FIG. 4 A-B)", "protocol": "K14^CreER/+; p53^loxP/loxP; Ptch^loxP/loxP; LGR5^DTReGFP/+ mice were generated by breeding p53^loxP/loxPPtch^loxP/loxP; LGR5^DTReGFP/+ mice with p53^loxP/loxP; Ptch^loxP/+; K14^CreER/−. Animals showing telltale signs of Superficial BCC disease such as loss of fur, scruffy coat, thickening of the ears or tail skin were put on study. Animals were typically placed on study at 7 weeks of age. K14^CreER/+; p53^loxP/loxP; Ptch^loxP/loxP; LGR5^DTReGFP/+ mice were treated with the regimes as follows. To test the effects of DT treatments on residual superficial BCC, mice were treated Vismodegib (GDC-0449) po bid at 75 mg/kg for 38 days with concomitant with Diphtheria Toxin (DT) at 50 ug/kg every other day for the final 8 days starting at […]. Control mice were treated with Vismodegib (GDC-0449) po bid at 75 mg/kg for 38 days concomitant with 200 uL IP saline for the final 8 days of treatment. In addition, animals showing signs of disease (listed above) were treated with saline or DT alone at 50 ug/kg every other day for 5 days to test the effect of single DT treatments.\nHarvested skin from treated animals was processed for Hematoxylin and Eosin (H&E) staining using established protocols. Alternatively, backskin from treated animals was fixed over night in 4% paraformaldehyde/PBS solution, washed, incubated in 30% sucrose/PBS solution overnight, and embedded in frozen OCT. […]"}, "basal cell carcinoma": {"test_system": "basal cell carcinoma", "test": "Basal cell carcinoma in K14-CreER; Ptch1fl/fl; p53fl/fl mice treated with GDC-0449", "format": "in vivo", "protocol": "Harvested skin from treated animals was processed for Hematoxylin and Eosin (H&E) staining using established protocols. Alternatively, backskin from treated animals was fixed over night in 4% paraformaldehyde/PBS solution, washed, incubated in 30% sucrose/PBS solution overnight, and embedded in frozen OCT. Sections were then cut at 8 um from the frozen blocks and stained for the apoptosis marker cleaved caspase 3 (1:1000), GFP (1:1000), or Keratin 5 (1:1000). Sections were counterstained with DAPI."}},
  "data": [
    {"smiles": "CS(=O)(=O)c1ccc(C(=O)Nc2ccc(Cl)c(-c3ccccn3)c2)c(Cl)c1", "note": "[GDC-0449, 2-chloro-N-[4-chloro-3-(pyridin-2-yl)phenyl]-4-(methylsulfonyl)benzamide]", "values": [
      {"measurement": "tumor regression", "setting": "[1]", "result": "tumor regression"},
      {"measurement": "tumor regression", "setting": "basal cell carcinoma; K14-CreER, Ptch1fl/fl, p53fl/fl mice, compared to untreated control mice (FIG. 2)", "result": "extensive tumor regression"},
      {"measurement": "residual disease", "setting": "basal cell carcinoma; after 75 mg/kg GDC-0449 po BID for 56 days (FIG. 2 C-D)", "result": "still observed"}
    ]}
  ]
}
